# Tests used:
# Type in all cases: biochemical
# [1] = tested on: AMPK; test: Protein kinase assay ([γ-32P] ATP), AMPK
# Experimental: (§1) In another set of experiments, the activities of the compounds described herein against various protein kinases were determined according to the methods reported in Hastie et al., Nature Protocols, 2006, 1, 968-971.
# (§2) Enzyme dilution buffer. This buffer consisted of 50 mM Tris-HCl, pH 7.5, 0.1 mM EGTA, 1 mg ml^−1 bovine serum albumin and 0.1% (vol/vol) 2-mercaptoethanol.
# (§3) 10× concentrated assay buffer. An assay buffer of 500 mM Tris-HCl, pH 7.5, 1 mM EGTA, and 100 mM magnesium acetate was used for assay of a wide variety of protein kinases. In some experiments, other cofactors were included (e.g., calcium ions and calmodulin were included for assay of calcium-calmodulindependent protein kinases).
# (§4) 1 mM [γ-^32P] ATP. The specific activity of the [γ-^32P] ATP solution was 1×10^5 to 1×10^6 c.p.m. per nmol depending on what was needed to produce an optimal signal/noise ratio. […] To measure the concentration of ATP, a sample of such a stock solution was diluted to 20 μM, and the absorbance of the diluted sample was measured at 259 nm. The absorbance of a 20-μM stock solution of ATP at 259 nm was about 0.31. […] ATP to produce a radioactivity of 1×10^5 to 1×10^6 c.p.m. per nmol. […]
# (§5) 13) Measure radioactivity in the samples by Cerenkov counting (e.g., without liquid scintillation fluid) in a liquid scintillation counter using a “^32P program”. […]
# [2] = biological target: DYRK2 (Homo sapiens, UniProt Q92630); test: Protein kinase assay ([γ-32P] ATP), DYRK2; conditions: read-out: Activity of the protein kinase when treated with compound I-1 (% control)
# Experimental: as §1, §2, §3, §4, §5
# [3] = biological target: EPH-A2 (Homo sapiens, UniProt P29317); test: Protein kinase assay ([γ-32P] ATP), EPH-A2; conditions: read-out: Activity of the protein kinase when treated with compound I-1 (% control)
# Experimental: as §1, §2, §3, §4, §5
# [4] = biological target: EPH-A4 (Homo sapiens, UniProt P54764); test: Protein kinase assay ([γ-32P] ATP), EPH-A4; conditions: read-out: Activity of the protein kinase when treated with compound I-1 (% control)
# Experimental: as §1, §2, §3, §4, §5
# [5] = biological target: HIPK3 (Homo sapiens, UniProt Q9H422); test: Protein kinase assay ([γ-32P] ATP), HIPK3; conditions: read-out: Activity of the protein kinase when treated with compound I-1 (% control)
# Experimental: as §1, §2, §3, §4, §5
# [6] = biological target: MAPKAP-K2 (Homo sapiens, UniProt P49137); test: Protein kinase assay ([γ-32P] ATP), MAPKAP-K2; conditions: read-out: Activity of the protein kinase when treated with compound I-1 (% control)
# Experimental: as §1, §2, §3, §4, §5
# [7] = biological target: MARK1 (Homo sapiens, UniProt Q9P0L2); test: Protein kinase assay ([γ-32P] ATP), MARK1; conditions: read-out: Activity of the protein kinase when treated with compound I-1 (% control)
# Experimental: as §1, §2, §3, §4, §5
# [8] = biological target: MELK (Homo sapiens, UniProt Q14680); test: Protein kinase assay ([γ-32P] ATP), MELK; conditions: read-out: Activity of the protein kinase when treated with compound I-1 (% control)
# MELK, sequence (Q14680 whole entry): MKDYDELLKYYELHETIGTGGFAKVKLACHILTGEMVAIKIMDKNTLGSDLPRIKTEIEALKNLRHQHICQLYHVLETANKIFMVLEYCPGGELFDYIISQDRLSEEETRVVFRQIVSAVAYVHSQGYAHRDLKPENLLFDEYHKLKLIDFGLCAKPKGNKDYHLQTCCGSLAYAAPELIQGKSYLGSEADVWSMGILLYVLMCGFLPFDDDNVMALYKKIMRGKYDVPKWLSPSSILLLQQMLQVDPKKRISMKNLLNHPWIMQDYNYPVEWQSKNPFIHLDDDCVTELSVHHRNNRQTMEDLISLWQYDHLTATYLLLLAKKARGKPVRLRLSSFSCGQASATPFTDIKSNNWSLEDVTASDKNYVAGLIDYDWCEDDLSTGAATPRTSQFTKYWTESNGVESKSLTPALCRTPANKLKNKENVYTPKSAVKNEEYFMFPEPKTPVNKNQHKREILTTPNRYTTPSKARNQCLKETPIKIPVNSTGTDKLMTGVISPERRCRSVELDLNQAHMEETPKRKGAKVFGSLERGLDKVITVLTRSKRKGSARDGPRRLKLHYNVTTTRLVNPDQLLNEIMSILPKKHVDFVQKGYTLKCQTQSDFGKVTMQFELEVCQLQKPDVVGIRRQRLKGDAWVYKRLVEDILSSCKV
# Experimental: as §1, §2, §3, §4, §5
# [9] = biological target: MKK6 (Homo sapiens, UniProt P52564); test: Protein kinase assay ([γ-32P] ATP), MKK6; conditions: read-out: Activity of the protein kinase when treated with compound I-1 (% control)
# MKK6, sequence (P52564 whole entry): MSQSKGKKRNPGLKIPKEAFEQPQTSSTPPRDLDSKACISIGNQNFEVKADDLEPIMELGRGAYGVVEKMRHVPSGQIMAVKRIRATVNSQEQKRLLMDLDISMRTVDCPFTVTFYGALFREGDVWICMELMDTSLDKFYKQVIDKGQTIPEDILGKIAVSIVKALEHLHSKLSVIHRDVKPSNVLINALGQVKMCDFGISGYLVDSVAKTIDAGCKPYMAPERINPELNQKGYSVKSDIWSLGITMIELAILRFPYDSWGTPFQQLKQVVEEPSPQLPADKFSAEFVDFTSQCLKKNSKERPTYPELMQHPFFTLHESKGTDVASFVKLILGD
# Experimental: as §1, §2, §3, §4, §5
# [10] = biological target: MLK1 (Homo sapiens, UniProt P80192); test: Protein kinase assay ([γ-32P] ATP), MLK1; conditions: read-out: Activity of the protein kinase when treated with compound I-1 (% control)
# MLK1, sequence (P80192 whole entry): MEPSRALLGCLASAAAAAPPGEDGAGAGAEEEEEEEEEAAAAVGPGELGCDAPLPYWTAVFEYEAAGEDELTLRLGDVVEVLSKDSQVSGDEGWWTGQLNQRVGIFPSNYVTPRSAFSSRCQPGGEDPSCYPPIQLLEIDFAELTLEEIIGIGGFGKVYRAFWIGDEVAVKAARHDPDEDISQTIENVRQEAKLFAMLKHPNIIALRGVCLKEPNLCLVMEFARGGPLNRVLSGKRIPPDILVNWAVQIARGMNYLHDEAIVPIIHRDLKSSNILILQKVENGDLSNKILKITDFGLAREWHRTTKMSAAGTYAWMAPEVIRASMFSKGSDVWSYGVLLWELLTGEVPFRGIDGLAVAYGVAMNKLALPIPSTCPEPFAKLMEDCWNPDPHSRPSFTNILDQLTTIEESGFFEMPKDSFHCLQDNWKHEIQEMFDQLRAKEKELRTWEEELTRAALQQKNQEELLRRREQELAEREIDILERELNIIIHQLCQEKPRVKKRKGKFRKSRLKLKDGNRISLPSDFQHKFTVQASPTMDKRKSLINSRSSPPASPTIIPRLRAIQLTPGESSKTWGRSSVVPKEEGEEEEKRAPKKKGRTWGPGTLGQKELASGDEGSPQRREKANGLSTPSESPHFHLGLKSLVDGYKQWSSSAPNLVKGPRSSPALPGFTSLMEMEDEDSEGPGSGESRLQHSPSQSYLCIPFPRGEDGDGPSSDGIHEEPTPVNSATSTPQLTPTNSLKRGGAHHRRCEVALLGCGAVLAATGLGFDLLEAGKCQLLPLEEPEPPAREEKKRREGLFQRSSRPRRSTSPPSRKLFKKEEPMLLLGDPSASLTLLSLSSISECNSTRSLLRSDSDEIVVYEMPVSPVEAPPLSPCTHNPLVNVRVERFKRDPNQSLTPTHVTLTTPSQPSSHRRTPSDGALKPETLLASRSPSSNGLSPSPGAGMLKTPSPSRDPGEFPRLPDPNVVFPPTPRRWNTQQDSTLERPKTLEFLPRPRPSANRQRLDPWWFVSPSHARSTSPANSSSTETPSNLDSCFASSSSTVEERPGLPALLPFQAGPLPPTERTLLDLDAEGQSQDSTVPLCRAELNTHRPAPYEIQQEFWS
# Experimental: as §1, §2, §3, §4, §5
# [11] = biological target: MPSK1 (Homo sapiens, UniProt O75716); test: Protein kinase assay ([γ-32P] ATP), MPSK1; conditions: read-out: Activity of the protein kinase when treated with compound I-1 (% control)
# MPSK1, sequence (O75716 whole entry): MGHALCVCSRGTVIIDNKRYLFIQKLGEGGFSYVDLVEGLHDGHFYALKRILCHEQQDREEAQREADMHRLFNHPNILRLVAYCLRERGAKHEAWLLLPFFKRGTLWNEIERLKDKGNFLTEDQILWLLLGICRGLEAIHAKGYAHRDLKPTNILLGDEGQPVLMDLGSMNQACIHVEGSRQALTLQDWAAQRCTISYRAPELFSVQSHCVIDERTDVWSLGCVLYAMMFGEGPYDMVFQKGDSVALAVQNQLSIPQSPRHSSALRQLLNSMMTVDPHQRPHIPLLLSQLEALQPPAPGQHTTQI
# Experimental: as §1, §2, §3, §4, §5
# [12] = biological target: SRPK1 (Homo sapiens, UniProt Q96SB4); test: Protein kinase assay ([γ-32P] ATP), SRPK1; conditions: read-out: Activity of the protein kinase when treated with compound I-1 (% control)
# SRPK1, sequence (Q96SB4 whole entry, species assumed): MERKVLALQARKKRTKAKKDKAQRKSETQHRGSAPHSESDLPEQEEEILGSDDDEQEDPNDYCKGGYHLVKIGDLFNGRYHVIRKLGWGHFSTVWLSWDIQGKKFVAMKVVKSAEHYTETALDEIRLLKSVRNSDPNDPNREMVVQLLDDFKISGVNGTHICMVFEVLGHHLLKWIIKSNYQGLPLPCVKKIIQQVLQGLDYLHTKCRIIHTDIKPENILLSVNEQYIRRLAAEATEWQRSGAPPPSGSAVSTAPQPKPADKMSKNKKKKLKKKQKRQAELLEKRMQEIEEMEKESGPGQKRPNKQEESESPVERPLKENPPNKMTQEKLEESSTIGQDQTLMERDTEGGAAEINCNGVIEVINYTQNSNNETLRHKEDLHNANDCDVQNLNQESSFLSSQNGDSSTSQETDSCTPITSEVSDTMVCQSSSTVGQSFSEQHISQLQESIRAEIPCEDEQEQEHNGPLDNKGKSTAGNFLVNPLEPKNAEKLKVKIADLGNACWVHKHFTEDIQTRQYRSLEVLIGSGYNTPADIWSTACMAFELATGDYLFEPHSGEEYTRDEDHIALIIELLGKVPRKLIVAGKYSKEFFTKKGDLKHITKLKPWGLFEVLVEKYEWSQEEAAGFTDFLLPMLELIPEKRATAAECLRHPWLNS
# Experimental: as §1, §2, §3, §4, §5
# [13] = biological target: STK33 (Homo sapiens, UniProt Q9BYT3); test: Protein kinase assay ([γ-32P] ATP), STK33; conditions: read-out: Activity of the protein kinase when treated with compound I-1 (% control)
# Experimental: as §1, §2, §3, §4, §5
# [14] = biological target: TIE2 (Homo sapiens, UniProt Q02763); test: Protein kinase assay ([γ-32P] ATP), TIE2; conditions: read-out: Activity of the protein kinase when treated with compound I-1 (% control)
# TIE2, sequence (Q02763 23-1124, species assumed): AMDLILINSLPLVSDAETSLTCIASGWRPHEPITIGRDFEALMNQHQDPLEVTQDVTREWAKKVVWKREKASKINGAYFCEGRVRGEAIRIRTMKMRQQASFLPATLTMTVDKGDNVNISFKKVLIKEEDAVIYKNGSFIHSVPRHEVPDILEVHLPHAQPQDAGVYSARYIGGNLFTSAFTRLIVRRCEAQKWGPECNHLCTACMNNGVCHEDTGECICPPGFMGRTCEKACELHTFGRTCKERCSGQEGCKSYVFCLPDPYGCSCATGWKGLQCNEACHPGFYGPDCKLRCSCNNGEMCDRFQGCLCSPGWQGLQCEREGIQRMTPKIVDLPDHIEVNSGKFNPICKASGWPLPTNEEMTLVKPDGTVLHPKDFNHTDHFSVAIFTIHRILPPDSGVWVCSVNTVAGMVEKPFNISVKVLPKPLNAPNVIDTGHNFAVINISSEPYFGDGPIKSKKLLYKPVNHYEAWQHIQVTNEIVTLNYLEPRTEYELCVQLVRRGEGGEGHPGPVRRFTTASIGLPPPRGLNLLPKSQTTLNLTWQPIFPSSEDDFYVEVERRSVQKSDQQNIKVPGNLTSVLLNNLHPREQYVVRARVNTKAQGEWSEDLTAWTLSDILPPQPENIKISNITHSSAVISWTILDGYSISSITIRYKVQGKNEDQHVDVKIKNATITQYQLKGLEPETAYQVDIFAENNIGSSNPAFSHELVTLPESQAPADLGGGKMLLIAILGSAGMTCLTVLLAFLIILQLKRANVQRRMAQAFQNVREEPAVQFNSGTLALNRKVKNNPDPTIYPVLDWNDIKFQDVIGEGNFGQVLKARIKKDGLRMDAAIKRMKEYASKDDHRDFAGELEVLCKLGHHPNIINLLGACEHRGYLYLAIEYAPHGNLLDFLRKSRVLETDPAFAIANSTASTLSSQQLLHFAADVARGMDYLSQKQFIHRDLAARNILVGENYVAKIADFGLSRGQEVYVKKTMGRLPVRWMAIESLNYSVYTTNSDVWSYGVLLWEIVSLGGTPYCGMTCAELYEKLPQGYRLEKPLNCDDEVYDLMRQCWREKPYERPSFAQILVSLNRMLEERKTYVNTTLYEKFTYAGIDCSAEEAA
# Experimental: as §1, §2, §3, §4, §5
# [15] = biological target: TrkA (Homo sapiens, UniProt P04629); test: Protein kinase assay ([γ-32P] ATP), TrkA; conditions: read-out: Activity of the protein kinase when treated with compound I-1 (% control)
# TrkA, sequence (P04629 33-796, species assumed): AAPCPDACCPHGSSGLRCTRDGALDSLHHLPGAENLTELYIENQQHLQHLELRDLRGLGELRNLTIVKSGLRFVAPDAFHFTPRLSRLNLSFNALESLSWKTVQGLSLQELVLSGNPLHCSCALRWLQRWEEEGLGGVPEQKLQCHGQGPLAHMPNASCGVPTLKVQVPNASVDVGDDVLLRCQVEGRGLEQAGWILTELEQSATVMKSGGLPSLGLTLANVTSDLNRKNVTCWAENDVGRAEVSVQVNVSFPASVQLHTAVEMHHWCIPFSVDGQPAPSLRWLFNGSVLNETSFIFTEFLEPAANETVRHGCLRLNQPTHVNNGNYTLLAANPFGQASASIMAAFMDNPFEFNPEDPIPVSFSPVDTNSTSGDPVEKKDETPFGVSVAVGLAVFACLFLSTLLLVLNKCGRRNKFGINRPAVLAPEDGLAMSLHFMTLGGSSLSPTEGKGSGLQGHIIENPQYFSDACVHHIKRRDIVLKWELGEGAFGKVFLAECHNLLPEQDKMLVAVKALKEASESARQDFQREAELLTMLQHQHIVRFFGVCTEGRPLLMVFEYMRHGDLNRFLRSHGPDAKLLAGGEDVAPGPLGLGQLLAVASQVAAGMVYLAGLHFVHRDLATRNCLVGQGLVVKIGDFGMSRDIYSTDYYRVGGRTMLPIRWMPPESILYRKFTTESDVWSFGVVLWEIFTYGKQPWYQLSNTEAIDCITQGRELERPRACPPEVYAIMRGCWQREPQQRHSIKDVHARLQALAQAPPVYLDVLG
# Experimental: as §1, §2, §3, §4, §5
# [16] = biological target: TTBK1 (Homo sapiens, UniProt Q5TCY1); test: Protein kinase assay ([γ-32P] ATP), TTBK1; conditions: read-out: Activity of the protein kinase when treated with compound I-1 (% control)
# Experimental: as §1, §2, §3, §4, §5
# [17] = biological target: VEG-FR (Homo sapiens, UniProt P17948); test: Protein kinase assay ([γ-32P] ATP), VEG-FR; conditions: read-out: Activity of the protein kinase when treated with compound I-1 (% control)
# Experimental: as §1, §2, §3, §4, §5
# [18] = 0.1 μM of compound I-1, DMSO control = 100%
# [19] = 1 μM of compound I-1, DMSO control = 100%
structure (smiles),measurement,setting,value
Cc1cccc(C)c1NC(=O)N1C/C=C\COc2cccc(c2)Nc2cc1ncn2 [Compound I-1],Activity of the protein kinase when treated with compound I-1 (% control),[1]; [18],96 % control
same,Activity of the protein kinase when treated with compound I-1 (% control),[1]; [19],91 % control
same,remaining activity at 0.1 µM,[2]; [18],103%
same,remaining activity at 1 µM,[2]; [19],76%
same,remaining activity at 0.1 µM,[3]; [18],11%
same,remaining activity at 1 µM,[3]; [19],5%
same,remaining activity at 0.1 µM,[4]; [18],8%
same,remaining activity at 1 µM,[4]; [19],3%
same,remaining activity at 0.1 µM,[5]; [18],89%
same,remaining activity at 1 µM,[5]; [19],81%
same,remaining activity at 0.1 µM,[6]; [18],88%
same,remaining activity at 1 µM,[6]; [19],84%
same,remaining activity at 0.1 µM,[7]; [18],62%
same,remaining activity at 1 µM,[7]; [19],68%
same,remaining activity at 0.1 µM,[8]; [18],67%
same,remaining activity at 1 µM,[8]; [19],49%
same,remaining activity at 0.1 µM,[9]; [18],101%
same,remaining activity at 1 µM,[9]; [19],93%
same,remaining activity at 0.1 µM,[10]; [18],60%
same,remaining activity at 1 µM,[10]; [19],17%
same,remaining activity at 0.1 µM,[11]; [18],110%
same,remaining activity at 1 µM,[11]; [19],89%
same,remaining activity at 0.1 µM,[12]; [18],100%
same,remaining activity at 1 µM,[12]; [19],74%
same,remaining activity at 0.1 µM,[13]; [18],116%
same,remaining activity at 1 µM,[13]; [19],100%
same,remaining activity at 0.1 µM,[14]; [18],52%
same,remaining activity at 1 µM,[14]; [19],10%
same,remaining activity at 0.1 µM,[15]; [18],54%
same,remaining activity at 1 µM,[15]; [19],76%
same,remaining activity at 0.1 µM,[16]; [18],115%
same,remaining activity at 1 µM,[16]; [19],80%
same,remaining activity at 0.1 µM,[17]; [18],49%
same,remaining activity at 1 µM,[17]; [19],7%

# From patent US10457691B2, “Macrocyclic kinase inhibitors and uses thereof” (Dana-Farber Cancer Institute, Inc., priority 2014, dated 2019)
